Data reported in US9890185B2, “Urea derivatives useful as kinase inhibitors” (Respivert Limited, priority 2013, dated 2018).

Assays:
Syk = Syk (Homo sapiens (Human), UniProt P43405); test: Syk enzyme inhibition (FRET, Z-LYTE); type: biochemical
Method in brief: (§1)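 c-Src (3000 ng/mL) or Syk (2000 ng/mL) stock was preincubated with compound (4–0.004 μg/mL stocks) for 2 hr at RT. FRET peptide (8 μM stock) and ATP (800 μM c-Src, 60 μM Syk, as added) were then added for 1 hr, followed by 1 hr protease development. The coumarin/fluorescein emission ratio gave % inhibition and IC50.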

PBMCs [1] = test: IL-2 release in CD3/CD28 stimulated PBMC cells (assay c); type: cell-based; details: Homo sapiens, read-out: IC50 Values for Inhibition of Cytokine Release, PBMCs IL-2
Method in brief: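 Steps: PBMCs separated from healthy whole blood by density gradient; seeded onto anti-CD3/CD28 coating (0.3 and 3 μg/mL respectively); compound added; incubated 3 days in standard tissue culture; supernatant cytokines quantified by sandwich ELISA, IC50 fitted.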

c-Src = c-Src (Homo sapiens (Human), UniProt P12931); test: c-Src enzyme inhibition (FRET, Z-LYTE); type: biochemical
Method in brief: as §1

PBMCs [2] = test: Cell mitosis assay in PBMCs (assay g); type: cell-based; details: Homo sapiens, PBMC, test compound 5 μg/mL
Method in brief: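 Human PBMCs from healthy donors, stimulated with 2% PHA for 48 hr, then exposed to test compounds for 20 hr, with demecolcine (0.1 μg/mL) added 2 hr before harvest. Cells fixed/permeabilised, stained for phospho-histone 3 and propidium iodide, and read by flow cytometry gated on lymphocytes. % mitosis inhibition vs 0.5% DMSO vehicle.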

[3] = molecular target: p38 MAPKα isoform (MAPK14) (Homo sapiens (Human), UniProt Q16539); test: p38 MAPKα enzyme inhibition (FRET, Z-LYTE, Method 2); type: biochemical
Method in brief: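 Z-LYTE FRET: p38 MAPKα (80 ng/mL for Method 1, 200 ng/mL for Method 2, pre-dilution) preincubated 2 hr RT with compound (4–0.004 μg/mL solutions), activity read via MAPKAP-K2 phosphorylation after 1 hr RT and 1 hr protease development. Coumarin/fluorescein ratio gives phosphorylation; % inhibition versus uninhibited control, IC50 from concentration-response curve.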

GSK 3α = GSK 3α (Homo sapiens (Human), UniProt P49840); test: GSK 3α enzyme inhibition (FRET, Z-LYTE, Method 2); type: biochemical; details: read-out: IC50 Values for Enzyme Inhibition, GSK3α
Method in brief: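 Recombinant human GSK3α was preincubated with compound (stocks 4, 0.4, 0.04 or 0.004 μg/mL) at RT, 2 hr for Method 1 and 105 min for Method 2. FRET peptide (8 μM stock) and ATP (40 μM stock) were added for 1 hr, then protease development for 1 hr. IC50 was taken from concentration–response curves.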

PBMCs [4] = test: LPS-induced IL-8 release in PBMC cells (assay b); type: cell-based, human; details: Homo sapiens, PBMC; LPS-stimulated PBMCs; read-out: IC50 Values for Inhibition of Cytokine Release, PBMCs IL-8
Method in brief: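 Human PBMCs from healthy donors, isolated by density gradient, were pretreated with compound for 2 h and then stimulated with 1 ng/mL LPS (E. coli 0111:B4) for 24 h at 37° C, 5% CO2. Supernatant IL-8 and TNFα were measured by sandwich ELISA, and IC50 was taken from the dose-response curve.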

Chain of GSK 3α (P49840 whole entry): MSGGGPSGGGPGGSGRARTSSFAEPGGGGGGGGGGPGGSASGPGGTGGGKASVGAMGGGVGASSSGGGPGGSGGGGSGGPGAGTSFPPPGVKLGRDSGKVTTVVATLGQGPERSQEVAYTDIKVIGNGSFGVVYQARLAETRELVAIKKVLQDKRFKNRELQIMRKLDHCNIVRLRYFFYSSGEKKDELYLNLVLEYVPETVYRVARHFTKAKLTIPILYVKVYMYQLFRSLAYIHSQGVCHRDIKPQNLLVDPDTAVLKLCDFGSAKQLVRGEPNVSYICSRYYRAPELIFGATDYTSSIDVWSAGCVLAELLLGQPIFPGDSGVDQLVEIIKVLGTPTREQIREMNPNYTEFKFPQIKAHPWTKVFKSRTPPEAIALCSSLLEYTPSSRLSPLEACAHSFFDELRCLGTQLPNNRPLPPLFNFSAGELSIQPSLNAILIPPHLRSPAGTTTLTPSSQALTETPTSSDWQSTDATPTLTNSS
Chain of c-Src (P12931 whole entry, looked up): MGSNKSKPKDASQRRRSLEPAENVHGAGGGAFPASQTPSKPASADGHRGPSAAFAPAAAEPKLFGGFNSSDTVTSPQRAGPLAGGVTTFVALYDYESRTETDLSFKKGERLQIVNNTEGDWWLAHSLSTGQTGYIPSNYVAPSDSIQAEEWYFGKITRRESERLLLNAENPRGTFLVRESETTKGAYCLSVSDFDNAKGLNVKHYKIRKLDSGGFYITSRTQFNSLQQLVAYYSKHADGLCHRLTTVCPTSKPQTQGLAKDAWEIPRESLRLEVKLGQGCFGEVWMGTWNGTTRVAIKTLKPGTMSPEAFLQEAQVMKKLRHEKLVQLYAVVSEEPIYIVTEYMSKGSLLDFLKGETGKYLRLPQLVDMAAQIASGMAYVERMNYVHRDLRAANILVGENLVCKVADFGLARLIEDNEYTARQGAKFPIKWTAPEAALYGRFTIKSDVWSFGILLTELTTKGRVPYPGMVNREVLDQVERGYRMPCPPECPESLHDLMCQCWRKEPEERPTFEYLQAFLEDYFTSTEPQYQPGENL
Chain of p38 MAPKα isoform (MAPK14) (Q16539 whole entry, canonical isoform): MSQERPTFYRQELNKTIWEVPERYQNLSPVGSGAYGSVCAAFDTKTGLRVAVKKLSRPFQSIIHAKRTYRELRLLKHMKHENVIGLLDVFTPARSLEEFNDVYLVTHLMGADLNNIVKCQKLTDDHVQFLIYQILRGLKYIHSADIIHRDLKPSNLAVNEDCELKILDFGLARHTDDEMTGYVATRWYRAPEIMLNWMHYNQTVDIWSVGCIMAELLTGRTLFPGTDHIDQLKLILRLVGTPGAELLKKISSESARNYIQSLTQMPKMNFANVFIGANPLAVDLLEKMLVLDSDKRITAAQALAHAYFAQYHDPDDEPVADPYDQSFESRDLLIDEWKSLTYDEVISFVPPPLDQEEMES

| Structure (SMILES) | IC50 (Syk) [nM] | IC50 (c-Src) [nM] | IC50 [3] [nM] | IC50 (GSK 3α) [µM] | IC50 (PBMCs [1]) [nM] | inhibition at 5 µg/mL (PBMCs [2]) [%] | IC50 (PBMCs [4]) [nM] |
| --- | --- | --- | --- | --- | --- | --- | --- |
| COc1cc(Nc2cc(Oc3ccc(NC(=O)Nc4cc(C(C)(C)C)cc(CC(N)=O)c4OC)c4ccccc34)ccn2)cc(OC)c1 [Example 30, 2-(5-(tert-Butyl)-3-(3-(4-((2-((3,5-dimethoxyphenyl)amino)pyridin-4-yl)oxy)naphthalen-1-yl)ureido)-2-methoxyphenyl)acetamide] | 708 | 60 | 132 | > 15.4 | 94.5 | 48.7 | 1.7 |
| COc1cccc(Nc2cc(Oc3ccc(NC(=O)Nc4cc(C(C)(C)C)cc(CC(N)=O)c4OC)c4ccccc34)ccn2)c1 [Example 33, 2-(5-(tert-Butyl)-2-methoxy-3-(3-(4-((2-((3-methoxyphenyl)amino)pyridin-4-yl)oxy)naphthalen-1-yl)ureido)phenyl)acetamide] | 519 | 63 | 109 | 10.5 | 117 | 31.3 | 1.7 |
| COc1c(CNC(C)=O)cc(C(C)(C)C)cc1NC(=O)Nc1ccc(Oc2ccnc(Nc3ccccc3)c2)c2ccccc12 [Example 35, N-(5-(tert-Butyl)-2-methoxy-3-(3-(4-((2-(phenylamino)pyridin-4-yl)oxy)naphthalen-1-yl)ureido)benzyl)acetamide] | 369 | 112 | 294 | > 11.8 | 221 | 50.6 | 3.4 |
| COc1cc(Nc2cc(Oc3ccc(NC(=O)Nc4cc(C(C)(C)C)cc(P(C)(C)=O)c4OC)c4ccccc34)ccn2)cc(C(N)=O)c1 [Example 37, 3-((4-((4-(3-(5-(tert-butyl)-3-(dimethylphosphoryl)-2-methoxyphenyl)ureido)-naphthalen-1-yl)oxy)pyridin-2-yl)amino)-5-methoxybenzamide] | 347 | 32 | 62 | 2.16 | 48 | 43.2 | 1.7 |
| COc1cccc(Nc2cc(Oc3ccc(NC(=O)Nc4cc(C(C)(C)C)cc([S+](C)[O-])c4OC)c4ccccc34)ccn2)c1 (stereo not drawn) [Example 41, 1-(5-(tert-Butyl)-2-methoxy-3-(methylsulfinyl)phenyl)-3-(4-((2-((3-methoxyphenyl)amino)pyridin-4-yl)oxy)naphthalen-1-yl)urea] | 247 | 72 | 179 | 10.2 | 184 | 36 | 2.9 |

Now those with a lower IC50 (Syk), led by results:

| IC50 (Syk) [nM] | IC50 (c-Src) [nM] | IC50 [3] [nM] | IC50 (GSK 3α) [µM] | Structure (SMILES) | IC50 (PBMCs [1]) [nM] | inhibition at 5 µg/mL (PBMCs [2]) [%] | IC50 (PBMCs [4]) [nM] |
| --- | --- | --- | --- | --- | --- | --- | --- |
| 201 | 78 | 302 | > 15.3 | COc1cc(Nc2cc(Oc3ccc(NC(=O)Nc4cc(C(C)(C)C)cc([S+](C)[O-])c4OC)c4ccccc34)ccn2)cc(OC)c1 (stereo not drawn) [Example 40, 1-(5-(tert-Butyl)-2-methoxy-3-(methylsulfinyl)phenyl)-3-(4-((2-((3,5-dimethoxyphenyl)amino)pyridin-4-yl)oxy)naphthalen-1-yl)urea] | 179 | 44.3 | 2.7 |
| 157 | 48 | 254 | 8.26 | COc1c(NC(=O)Nc2ccc(Oc3ccnc(Nc4cc(C)cc(C)c4)c3)c3ccccc23)cc(C(C)(C)C)cc1P(C)(C)=O [Example 28, 1-(5-(tert-Butyl)-3-(dimethylphosphoryl)-2-methoxyphenyl)-3-(4-((2-((3,5-dimethylphenyl)-amino)pyridin-4-yl)oxy)naphthalen-1-yl)urea] | 63.3 | 54.4 | 2.5 |
| 132 | 54 | 129 | 7.7 | COc1cccc(Nc2cc(Oc3ccc(NC(=O)Nc4cc(C(C)(C)C)cc(CNC(C)=O)c4OC)c4ccccc34)ccn2)c1 [Example 43, N-(5-(tert-Butyl)-2-methoxy-3-(3-(4-((2-((3-methoxyphenyl)amino)pyridin-4-yl)oxy)naphthalen-1-yl)ureido)benzyl)acetamide] | 30.4 | 62.1 | 1.4 |
| 120 | 29 | 31 | 1.98 | COc1cc(Nc2cc(Oc3ccc(NC(=O)Nc4cc(C(C)(C)C)cc(CC(N)=O)c4OC)c4ccccc34)ccn2)ccc1C(=O)NCC(CO)(CO)CO [Example 73, 4-((4-((4-(3-(3-(2-Amino-2-oxoethyl)-5-(tert-butyl)-2-methoxyphenyl)ureido)naphthalen-1-yl)oxy)pyridin-2-yl)amino)-N-(3-hydroxy-2,2-bis(hydroxymethyl)propyl)-2-methoxybenzamide] | 60.1 | 19.8 | 1.5 |
| 98 | 20 | 32 | 3.67 | COc1cc(Nc2cc(Oc3ccc(NC(=O)Nc4cc(C(C)(C)C)cc([S+](C)[O-])c4OC)c4ccccc34)ccn2)ccc1C(=O)NCCN1CCOCC1 (stereo not drawn) [Example 72, 4-((4-((4-(3-(5-(tert-Butyl)-2-methoxy-3-(methylsulfinyl)phenyl)ureido)naphthalen-1-yl)oxy)pyridin-2-yl)amino)-2-methoxy-N-(2-morpholinoethyl)benzamide] | 156 | 36.8 | 2.1 |
| 95 | 67 | 175 | > 15.1 | COc1cc(Nc2cc(Oc3ccc(NC(=O)Nc4cc(C(C)(C)C)cc(CNC(C)=O)c4OC)c4ccccc34)ccn2)cc(OC)c1 [Example 44, N-(5-(tert-Butyl)-3-(3-(4-((2-((3,5-dimethoxyphenyl)amino)pyridin-4-yl)oxy)naphthalen-1-yl)ureido)-2-methoxybenzyl)acetamide] | 28.3 | 42.8 | 1.3 |
| 51 | 17 | 20 | 2.62 | COCCOCCOCCNC(=O)c1cc(Nc2cc(Oc3ccc(NC(=O)Nc4cc(C(C)(C)C)cc(CNC(=O)CN(C)C)c4OC)c4ccccc34)ccn2)cc(OC)c1 [Example 77, 3-((4-((4-(3-(5-(tert-Butyl)-3-((2-(dimethylamino)acetamido)methyl)-2-methoxyphenyl)ureido)naphthalen-1-yl)oxy)pyridin-2-yl)amino)-5-methoxy-N-(2-(2-(2-methoxyethoxy)ethoxy)ethyl)benzamide] | 18.9 | 58.7 | 0.9 |
